Here are results for three molecules from patent publication US20240092814A1, “WATER-SOLUBLE Pd(II) COMPLEX, METHOD FOR SYNTHESIZING SAME, AND USE THEREOF AS [sequence] PRECURSOR” (priority 2022, published 2024).

Molecules are shown by their SMILES. Where two headings read alike, the source gives them in different places.

As usually defined, the solubility is the concentration that dissolves in the medium under given conditions.

A short description of data set [1]: Solubility in pure water at room temperature. The data set is classed as physicochemical. The source says:
(§1) The pH of the solution at a concentration of 100 g/L is about 4-5.

The nature of data set [2]: Stability of aqueous solution (colour change, precipitation). The data set is classed as physicochemical.
Description: as §1

Data set [3] is described as follows: pH of aqueous solution. The data set is classed as physicochemical. The conditions noted are these: concentration of 100 g/L.
Description: as §1

Data set [4] is described as follows: Solid-state stability and thermal decomposition (TG-DTA). The data set is classed as physicochemical. The protocol:
(3) Its solid state is stable at room temperature. In the simulated air atmosphere and nitrogen, a thermal decomposition reaction can occur at a lower temperature (<190° C.) to generate palladium metal (see FIG. 2 and FIG. 3), which can reduce energy consumption in the thermal reduction or calcination process of catalyst preparation. Moreover, the decomposition products are Pd, CO2, N2 and H2O, facilitating clean production and environmental protection.
FIG. 2: a thermogravimetric curve (TG-DTA) of (NH4)2[Pd(NO2)2(C2O4)]·2H2O of the present disclosure in simulated air.
FIG. 3: a thermogravimetric curve (TG-DTA) of (NH4)2[Pd(NO2)2(C2O4)]·2H2O of the present disclosure in nitrogen.

For data set [5] the following is noted: background statement; cited from earlier work.

With `O=C1[O][Pd]([N+](=O)[O-])([N+](=O)[O-])[O]C1=O` [Pd-X6, ammonium dinitrooxalato palladium(II)], in data set [1], the solubility was > 400 mg/mL and the “solubility in pure water, equivalent Pd” value is given as > 120 g Pd/L. For the same molecule, the stability in water entry in data set [2] (60° C. for 5 hours) was “color of the solution does not change and no precipitation is observed”. In addition, in data set [2] (room temperature for 2 days), the stability in water entry was “color of the solution does not change and no precipitation is observed”. The “pH of the solution” value in data set [3] is listed as 4-5. Further, the solid state stability result in data set [4] (room temperature) is “stable”. In addition, the “thermal decomposition temperature to palladium metal” value in data set [4] (simulated air atmosphere and nitrogen) was < 190 °C.

In the case of `O.O.O=C([O-])C(=O)[O-].O=C([O-])C(=O)[O-].[NH4+].[NH4+].[Pd+2]` [(NH4)2[Pd(C2O4)2]·2H2O, ammonium bis(oxalato)palladium(II) dihydrate, reference compound], the stability result in data set [4] (room temperature, self-redox reaction producing palladium metal) is “unstable”.

With `O=[N+]([O-])[O-].O=[N+]([O-])[O-].[Pd+2]` [Palladium nitrate solution, palladium nitrate], the stability in water result in data set [5] is listed as “unstable in water”.
